Measured values reported in US11815511B2 (priority 2019, dated 2023).

Tested on: anti-4,15-diacetoxyscirpenol monoclonal antibody secreted by hybridoma cell strain DAS5G11E7
Format: binding, mouse
Details: in ng/mL

| Compound | IC50 |
| --- | --- |
| CC1=C[C@H]2O[C@@H]3[C@H](O)C[C@](C)([C@@]2(CO)[C@H](O)C1=O)[C@]31CO1 [DON, Deoxynivalenol] | >100,000 |
| C[C@@H]1Cc2c(Cl)cc(C(=O)N[C@@H](Cc3ccccc3)C(=O)O)c(O)c2C(=O)O1 [OTA, ochratoxin] | >100,000 |
| 3-acetyldeoxynivalenol [3-acetyl-DON] | >100,000 |
| HT-2 toxin | >100,000 |
